We go through 20 compounds from ChEMBL document CHEMBL1201862, “PubChem BioAssay data set” (2004).

Common to all, as to experiment: NCI anticancer screen, dose series, 48 h
For experiment [1], the system named is SNB-78.
In experiment [2] the test system is HOP-18.
For experiment [3], the system named is LXFL 529.
Experiment [4] has as its system KM-20L2.
The subject of experiment [5] is DMS-114.
Experiment [6] relates to M19-MEL.
Experiment [7] concerns RXF 631.
For experiment [8], the system named is DLD-1.
Experiment [9] relates to DMS-273.

Each structure is given as a SMILES string.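 Cells were grown in 96-well plates and exposed to each compound for 48 hours at five concentrations; endpoints were interpolated linearly between bracketing concentrations, or set to the highest concentration if not reached. GI50 = concentration required for 50% inhibition of growth.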 The source made the active and inactive calls. Cut-off read from the data, not from the text of the source: active = GI50 up to about 1.1 µM and inactive = higher.

In the case of `COc1ccc2c(c1)c(=O)c1c(NCCN(C)C)ccc3nnn2c31`, the GI50 in experiment [1] was 4.35 µM (inactive); in experiment [2], 0.504 µM (active); in [3] it was 2.91 µM (inactive); in experiment [4] it was 1.15 µM (inactive); in experiment [5], 3.64 µM (inactive); in experiment [6], 6.61 µM (inactive). Further, the GI50 in [7] was 2.21 µM (inactive); in experiment [8], 1.71 µM (inactive).

Regarding `C=C1C(=O)OC2C=C(CCC(C)=O)C(C)C(OC(C)=O)CC12` (centres undefined), the GI50 in experiment [1] is 7.94 µM (inactive); in [2], 11.7 µM (inactive); in experiment [3] it was 0.447 µM (active); in experiment [4] it was 4.89 µM (inactive); in [6] it was 14.6 µM (inactive).

For the compound `Cc1cc(C)nc(NS(=O)(=O)c2ccc(NC(=O)c3cccc4cc5ccccc5nc34)cc2)n1`, the GI50 was 25.2 µM (inactive) in experiment [1]; 36.1 µM (inactive) in experiment [3]; 37.2 µM (inactive) in experiment [4]; 21.9 µM (inactive) in experiment [9]; 28.2 µM (inactive) in experiment [6]; 28.5 µM (inactive) in [7]. Moreover, in [8], the GI50 is 27.5 µM (inactive).

`Cc1ccc(/C=N/NS(=O)(=O)c2ccccc2)cc1`: the GI50 in experiment [1], in [2], in experiment [3], in experiment [4], in experiment [9] and in experiment [5] was > 100 µM (inactive) in each case. The GI50 in experiment [7] and in [8] was > 100 µM (inactive) throughout.

With `C=CCC1(CN(C)C)CC/C(=C\c2ccc(Cl)cc2)C1=O` (centres undefined), the GI50 in [1] was 27.4 µM (inactive); in experiment [2], > 54.1 µM (inactive); in experiment [3] it was 27.5 µM (inactive); in experiment [4], 22.8 µM (inactive); in experiment [9], 24.7 µM (inactive); in experiment [5], 27.4 µM (inactive). Further, the GI50 is 32.3 µM (inactive) in experiment [6] and 32.1 µM (inactive) in experiment [8].

For the compound `COC(=O)CCSC(=O)Nc1ccccc1Cl`, the GI50 in experiment [1], in experiment [3], in experiment [4], in experiment [9], in experiment [5] and in [8] was > 100 µM (inactive) in each case.

As to `CC(=O)OC[C@@H]1[C@H]2CC(=O)O[C@H]2C[C@H]1OC(C)=O`, the GI50 in [1], in [2], in [3], in experiment [4], in experiment [9] and in [5] was > 100 µM (inactive) each time. Moreover, the GI50 in [6] and in [8] was > 100 µM (inactive) throughout.

On to `COC1OC(C)C2OC(C)(C)OC2C1OC(C)=O` (centres undefined), for which the GI50 in [1], in experiment [2], in experiment [3], in experiment [4], in experiment [9] and in [6] was > 100 µM (inactive) each time. Further, the GI50 in [7] and in experiment [8] was > 100 µM (inactive) each time.

As to `C[C@]12CC[C@H](OCCC#N)CC1=CC[C@@H]1C2CC[C@]2(C)/C(=N/OCCC#N)CCC12` (some centres undefined), the GI50 in [1] is 22.8 µM (inactive); in experiment [2] it was > 100 µM (inactive); in experiment [3] it was > 74.6 µM (inactive); in [4], > 100 µM (inactive); in [9], 42.2 µM (inactive); in [5] it was 5.12 µM (inactive). Further, the GI50 in experiment [6] and in experiment [8] was > 100 µM (inactive) each time.

As to `O=C1C(=Cc2cccs2)C(=O)N(CCc2ccccc2)S(=O)(=O)N1CCc1ccccc1`, the GI50 was > 50 µM (inactive) in experiment [1]; > 50 µM (inactive) in experiment [2]; > 50 µM (inactive) in [3]; > 50 µM (inactive) in experiment [4]; > 50 µM (inactive) in experiment [9]; 10.4 µM (inactive) in experiment [5]. For the same compound, the GI50 in experiment [6] and in [8] was > 50 µM (inactive) each time.

As for `CC[C@@]1(OC(=O)C(N)CCCCN)C(=O)OCc2c1cc1n(c2=O)Cc2cc3ccccc3nc2-1` (some centres undefined), the GI50 in [1] is 0.372 µM (active); in [2] it was 0.0785 µM (active); in [3] it was 0.372 µM (active); in experiment [4], 0.166 µM (active); in [9], < 0.01 µM (active); in experiment [5] it was < 0.0157 µM (active). Also, the values for the GI50 in experiment [6] and in experiment [8] were 0.0619 µM (active) and 0.494 µM (active), respectively.

In the case of `COc1ccc(-c2oc3cc(O)c(OC)c(O)c3c(=O)c2O)cc1` [BETULETOL], the GI50 in experiment [1] is 81.3 µM (inactive); in experiment [2], 67.3 µM (inactive); in experiment [3] it was 20.1 µM (inactive); in experiment [4], 39.7 µM (inactive); in experiment [9], 9.68 µM (inactive); in experiment [6] it was 38.8 µM (inactive). For the same compound, the GI50 is 21.5 µM (inactive) in experiment [7] and 13.4 µM (inactive) in experiment [8].

In the case of `COCCOCC(=O)N(CCn1ccc(NC(c2ccccc2)(c2ccccc2)c2ccccc2)nc1=O)CCn1cnc2nc(N)[nH]c(=O)c21`, the GI50 in [1], in experiment [2], in experiment [3], in experiment [4], in [9] and in experiment [5] was > 100 µM (inactive) each time. The GI50 in experiment [7] and in experiment [8] was > 100 µM (inactive) each time.

With `O=C(CC1(O)C(=O)Nc2c(Cl)cc(Cl)cc21)c1ccc(F)cc1` (centres undefined), the GI50 in [1] is 83.9 µM (inactive); in [2], 72.1 µM (inactive); in experiment [3], 31.9 µM (inactive); in [4], 53 µM (inactive); in experiment [9], 38.2 µM (inactive); in [5], 23.9 µM (inactive). Also, the GI50 in experiment [6] is 19 µM (inactive); in experiment [7], 32.5 µM (inactive); in experiment [8], 46.8 µM (inactive).

Consider `CC1(C)C(O)C[C@@H](O)[C@@]2(C)C1CC[C@]1(C)C2C[C@@H](O)[C@@H]2C([C@@]3(C)CC[C@@H](C(C)(C)O)O3)CCC21C` (some centres undefined), for which the GI50 was 21.3 µM (inactive) in experiment [1]; 16.8 µM (inactive) in [2]; 10.2 µM (inactive) in experiment [3]; 17.5 µM (inactive) in experiment [4]; 14.6 µM (inactive) in [9]; 15.5 µM (inactive) in experiment [5]. In experiment [8], the GI50 was 16.5 µM (inactive).

Consider `Nc1ccn([C@@H]2C=C(CO)[C@@H](O)[C@H]2O)c(=O)n1`, for which the GI50 in experiment [1] was 3.28 µM (inactive); in experiment [2], 8.09 µM (inactive); in [4], 0.0912 µM (active); in experiment [9], 0.256 µM (active); in experiment [5] it was 0.417 µM (active); in experiment [6], 0.308 µM (active). The GI50 in experiment [8] was 0.151 µM (active).

Consider `COC1(C)C(=O)N2C1N(C(=O)OCc1ccccc1)CC2(C)C` (centres undefined), for which the GI50 in experiment [3], in experiment [4], in experiment [9], in experiment [5], in [6] and in experiment [8] was > 100 µM (inactive) throughout.

On to `O=C(N/C(=C\c1cccc([N+](=O)[O-])c1)c1nc2c3c(ccc2[nH]1)C(=O)c1ccccc1C3=O)c1ccccc1`, for which the GI50 is > 100 µM (inactive) in [1]; > 100 µM (inactive) in experiment [2]; 16 µM (inactive) in [3]; 30.2 µM (inactive) in experiment [4]; 26.4 µM (inactive) in experiment [5]; 12.2 µM (inactive) in experiment [8].

On to `Cc1cccc(/N=C/c2ccc(N(CCC#N)S(=O)(=O)c3ccccc3)cc2C)c1`, for which the GI50 in experiment [3] was 29.6 µM (inactive); in [4] it was > 100 µM (inactive); in experiment [9], > 100 µM (inactive); in experiment [5], 63.7 µM (inactive); in experiment [6], > 100 µM (inactive); in [7], > 100 µM (inactive). In addition, the GI50 in [8] was > 100 µM (inactive).

As to `CC1(C)C(O)OC(O)C1(C)C` (centres undefined), the GI50 was > 100 µM (inactive) in [1]; 49.1 µM (inactive) in experiment [2]; 74 µM (inactive) in experiment [3]; > 100 µM (inactive) in [4]; 70.5 µM (inactive) in experiment [9]; > 100 µM (inactive) in experiment [5]. In addition, the GI50 in [6] was > 100 µM (inactive); in experiment [7], 61 µM (inactive); in [8], 52.5 µM (inactive).
